Measured values reported in patent US7964352B2, “3′-OH unblocked nucleotides and nucleosides, base modified with labels and photocleavable, terminating groups and methods for their use in DNA sequencing” (priority 2006, dated 2011).
Read-outs that look alike come from different tables or passages of the source.

Columns and labels:
[1] = target: T1, Bst DNA polymerase (Geobacillus stearothermophilus, UniProt P52026); experiment: Polymerase end-point (PEP) assay, Bst; format: biochemical
T1 construct: purchased
T1 sequence (P52026 1-876): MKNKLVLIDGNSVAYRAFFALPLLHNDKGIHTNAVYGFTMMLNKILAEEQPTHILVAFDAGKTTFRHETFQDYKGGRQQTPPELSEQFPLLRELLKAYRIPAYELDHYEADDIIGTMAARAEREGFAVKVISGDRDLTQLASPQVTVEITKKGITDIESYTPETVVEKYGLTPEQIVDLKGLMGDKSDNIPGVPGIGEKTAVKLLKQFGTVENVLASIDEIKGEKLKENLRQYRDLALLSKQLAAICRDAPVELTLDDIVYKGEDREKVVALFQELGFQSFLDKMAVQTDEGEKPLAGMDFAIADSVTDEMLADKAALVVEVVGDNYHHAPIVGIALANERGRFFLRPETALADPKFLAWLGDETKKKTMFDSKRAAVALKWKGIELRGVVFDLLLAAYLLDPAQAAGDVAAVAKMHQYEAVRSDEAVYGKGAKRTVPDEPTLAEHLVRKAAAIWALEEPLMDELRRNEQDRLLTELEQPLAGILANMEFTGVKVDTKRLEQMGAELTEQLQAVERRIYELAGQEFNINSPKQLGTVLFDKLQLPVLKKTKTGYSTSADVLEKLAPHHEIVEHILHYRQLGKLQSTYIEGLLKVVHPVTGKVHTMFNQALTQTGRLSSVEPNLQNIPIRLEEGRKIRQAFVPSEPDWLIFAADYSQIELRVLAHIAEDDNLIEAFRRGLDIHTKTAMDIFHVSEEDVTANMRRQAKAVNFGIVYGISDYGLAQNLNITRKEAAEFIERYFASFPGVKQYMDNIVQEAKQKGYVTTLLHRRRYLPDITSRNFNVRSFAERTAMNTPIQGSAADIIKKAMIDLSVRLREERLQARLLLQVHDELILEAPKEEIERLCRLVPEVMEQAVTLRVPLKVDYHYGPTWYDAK
Description: (§1) Numerous groups have employed qualitative, Sanger-based assays to estimate relative incorporation efficiencies of terminating nucleotide analogs compared to their natural nucleotide counterparts. Although useful, the ability to assay modified nucleotide analogs in the absence of natural nucleotides is not feasible using these assays. These two limitations led to a quantitative, polymerase end-point (PEP) assay, which is utilized in a high-throughput manner for screening numerous modified nucleotides against a number of well-characterized, commercially available polymerases. Identification of lead compounds with a specific DNA polymerase could then be prioritized for further kinetic studies. The PEP assay is designed with the polymerase concentration in excess of the primer/template complex (i.e., this complex is fully bounded with polymerase at the start of the titration), thereby limiting reaction to nucleotide binding and nucleotyl coupling steps. Limiting amounts of the desired nucleotide are then titrated across the appropriate concentration range (generally three orders of magnitude) to observe extension of a dye-labeled primer by gel electrophoresis. The end-point concentration is determined from a semi-log plot where the number of moles of substrate and product are equal, called the IC50 (i.e., incorporation concentration at 50%) value.
(§2) For all polymerases evaluated in this study, 40 nM of oligo-template (5′-TACGGAGCA-[…], interrogation base is underlined and bolded) was annealed to 5 nM BODIPY-FL labeled primer (5′-TTGTAAAACGACGGCCAGT) in 1× ThermoPol buffer (20 mM Tris-HCl, pH 8.8; 10 mM (NH4)2SO4, 10 mM KCl; 2 mM MgSO4; 0.1% Triton X-100, New England BioLabs) at 80° C. for 30 seconds, 57° C. for 30 seconds, and then cooled to 4° C. The primer/template complex is then diluted by one-half (i.e., its final concentration is 2.5 nM in a volume of 10 μL) by the addition of DNA polymerase, nucleotide analog, and ThermoPol buffer. This defines the lower limit of the IC50 value for nucleotide titrations to 1.25 nM (i.e., [primer]=[primer+1]). Polymerase reactions were incubated at their appropriate temperature for 10 minutes, then cooled to 4° C. and quenched with 10 μL of stop solution (98% deionized formamide; 10 mM Na2EDTA, pH 8.0; 25 mg/mL Blue Dextran, MW 2,000,000). Stopped reactions were heated to 90° C. for 30 seconds, and then placed on ice. […] The PEP assays were performed in triplicate for each DNA polymerase/nucleotide analog combination to calculate its IC50 values±one standard deviation.
(§3) The number of activity units for eight commercially available, 3′-exonuclease deficient (3′-exo-) DNA polymerases was first determined by titration with 2′-deoxyadenosine triphosphate (dATP, concentration range from 0.1 nM to 100 nM) with the goal of reaching the PEP IC50 limit of 1.25 nM (data not shown). In general, increasing the number of units reduced the IC50 values for dATP towards this limit, with exception with Taq, THERMINATOR™, and THERMINATOR™ II. For these enzymes, there was an increase in IC50 values for dATP with increasing enzyme concentration, which was not investigated further and presumed to be due to a direct relationship with increasing enzyme concentration and phosphorolysis. For these cases, the number of units used for subsequent PEP assays were those activity units that gave the lowest IC50 values for dATP.
(§4) WW1p129 and ddATP were then titrated using the PEP assay with the eight DNA polymerases (unit activities previously defined) in the concentration range of either 0.1 nM to 100 nM, 1 nM to 1μM, 10 nM to 10μM, or 100 nM to 100 μM (see Table 1). UV-light sensitive compounds were handled at all times in low light conditions to minimize conversion to dATP.

[2] = target: T2, T[…] polymerase (Thermococcus sp., UniProt Q56366, A485L/D141A/E143A); experiment: Polymerase end-point (PEP) assay, Therminator; format: biochemical, Thermococcus species 9°N-7
T2 construct: purchased
T2 sequence (Q56366 whole entry D141A/E143A/A485L): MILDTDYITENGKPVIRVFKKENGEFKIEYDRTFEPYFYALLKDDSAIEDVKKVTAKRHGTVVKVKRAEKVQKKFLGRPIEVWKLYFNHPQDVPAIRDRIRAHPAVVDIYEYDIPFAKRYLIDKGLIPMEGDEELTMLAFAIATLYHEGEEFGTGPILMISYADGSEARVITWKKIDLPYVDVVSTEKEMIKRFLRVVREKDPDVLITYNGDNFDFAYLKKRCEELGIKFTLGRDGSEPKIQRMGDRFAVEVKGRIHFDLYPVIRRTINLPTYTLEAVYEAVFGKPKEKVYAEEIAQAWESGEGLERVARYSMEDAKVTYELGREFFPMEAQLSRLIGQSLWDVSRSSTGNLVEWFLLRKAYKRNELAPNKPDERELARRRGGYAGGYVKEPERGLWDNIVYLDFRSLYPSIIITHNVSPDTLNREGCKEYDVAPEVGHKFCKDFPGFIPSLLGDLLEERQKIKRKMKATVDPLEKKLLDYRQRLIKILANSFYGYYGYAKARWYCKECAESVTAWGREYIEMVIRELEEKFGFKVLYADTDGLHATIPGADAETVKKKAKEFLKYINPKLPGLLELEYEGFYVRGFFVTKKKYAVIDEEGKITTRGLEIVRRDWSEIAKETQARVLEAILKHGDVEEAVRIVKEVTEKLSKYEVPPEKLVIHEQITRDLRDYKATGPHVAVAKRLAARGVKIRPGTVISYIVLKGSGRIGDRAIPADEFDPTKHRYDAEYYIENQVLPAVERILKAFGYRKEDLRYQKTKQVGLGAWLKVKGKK
Description: as §1, §2, §3, §4

[3] = target: T3, Klenow (3′-exo-) DNA polymerase (Escherichia coli, UniProt P00582, D355A/E357A); experiment: Polymerase end-point (PEP) assay, Klenow (3′-exo-); format: biochemical; conditions: Klenow (3′-exo-): 37° C.; incorporation concentration at 50%
T3 construct: Klenow(-exo-) DNA polymerase; purchased
T3 sequence (P00582 324-928 D355A/E357A): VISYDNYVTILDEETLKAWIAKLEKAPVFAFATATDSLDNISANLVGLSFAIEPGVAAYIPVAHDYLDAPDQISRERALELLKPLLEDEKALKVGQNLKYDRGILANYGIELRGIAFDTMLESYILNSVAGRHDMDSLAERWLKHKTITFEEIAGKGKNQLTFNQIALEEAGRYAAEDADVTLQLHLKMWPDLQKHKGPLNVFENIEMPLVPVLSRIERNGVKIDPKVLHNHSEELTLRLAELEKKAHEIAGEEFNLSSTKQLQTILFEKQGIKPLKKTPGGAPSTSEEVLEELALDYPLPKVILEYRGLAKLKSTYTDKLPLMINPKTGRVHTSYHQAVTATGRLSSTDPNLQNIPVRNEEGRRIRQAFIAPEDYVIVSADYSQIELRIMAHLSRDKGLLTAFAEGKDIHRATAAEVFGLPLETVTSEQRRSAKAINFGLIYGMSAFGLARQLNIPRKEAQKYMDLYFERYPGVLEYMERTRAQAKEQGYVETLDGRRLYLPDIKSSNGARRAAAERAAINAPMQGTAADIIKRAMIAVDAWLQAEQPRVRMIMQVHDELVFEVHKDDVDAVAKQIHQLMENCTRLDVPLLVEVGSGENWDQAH
Description: as §1
(§5) For all polymerases evaluated in this study, 40 nM of oligo-template (5′-TACGGAGCA-[…], interrogation base is underlined and bolded) was annealed to 5 nM BODIPY-FL labeled primer (5′-TTGTAAAACGACGGCCAGT) in 1× ThermoPol buffer (20 mM Tris-HCl, pH 8.8; 10 mM (NH4)2SO4, 10 mM KCl; 2 mM MgSO4; 0.1% Triton X-100, New England BioLabs) at 80° C. for 30 seconds, 57° C. for 30 seconds, and then cooled to 4° C. The primer/template complex is then diluted by one-half (i.e., its final concentration is 2.5 nM in a volume of 10 μL) by the addition of DNA polymerase, nucleotide analog, and ThermoPol buffer. This defines the lower limit of the IC50 value for nucleotide titrations to 1.25 nM (i.e., [primer]=[primer+1]). […]

[4] = target: T4, Taq DNA polymerase (Thermus aquaticus, UniProt P19821); experiment: Polymerase end-point (PEP) assay, Taq; format: biochemical; conditions: Taq: 68° C.; incorporation concentration at 50%
T4 construct: purchased
T4 sequence (P19821 whole entry): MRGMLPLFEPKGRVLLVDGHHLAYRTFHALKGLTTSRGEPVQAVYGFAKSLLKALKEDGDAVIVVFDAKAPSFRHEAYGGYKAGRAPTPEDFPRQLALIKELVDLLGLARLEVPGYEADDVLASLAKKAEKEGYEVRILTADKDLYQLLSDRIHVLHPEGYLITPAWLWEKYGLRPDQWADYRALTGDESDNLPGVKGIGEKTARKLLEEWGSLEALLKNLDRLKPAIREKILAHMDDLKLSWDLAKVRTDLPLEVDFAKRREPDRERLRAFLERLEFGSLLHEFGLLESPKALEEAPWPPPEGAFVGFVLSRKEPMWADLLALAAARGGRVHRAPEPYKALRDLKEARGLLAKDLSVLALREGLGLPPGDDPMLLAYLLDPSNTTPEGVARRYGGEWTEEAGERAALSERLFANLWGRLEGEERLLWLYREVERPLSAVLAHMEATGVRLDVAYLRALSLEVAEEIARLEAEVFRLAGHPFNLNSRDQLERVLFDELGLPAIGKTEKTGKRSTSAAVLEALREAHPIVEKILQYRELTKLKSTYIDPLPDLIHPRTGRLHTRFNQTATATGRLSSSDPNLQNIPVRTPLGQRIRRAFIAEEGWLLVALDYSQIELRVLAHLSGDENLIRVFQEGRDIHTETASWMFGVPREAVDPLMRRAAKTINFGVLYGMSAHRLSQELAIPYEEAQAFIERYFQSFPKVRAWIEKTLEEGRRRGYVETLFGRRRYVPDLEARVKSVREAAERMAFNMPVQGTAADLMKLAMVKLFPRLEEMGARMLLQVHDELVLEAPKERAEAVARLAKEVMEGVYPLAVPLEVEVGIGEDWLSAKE
Description: as §1, §5

[5] = target: T5, AMPLITAQ DNA polymerase, FS (Taq FS) (Thermus aquaticus, UniProt P19821, F667Y/G46D); experiment: Polymerase end-point (PEP) assay, Taq FS; format: biochemical; conditions: Taq FS: 68° C.; incorporation concentration at 50%
T5 construct: purchased
T5 sequence (P19821 whole entry G46D/F667Y): as the sequence (P19821 whole entry) above, with G46D, F667Y counted along it
Description: as §1, §5

[6] = target: T6, T[…] DNA polymerase (Thermococcus sp., UniProt Q56366, A485L/D141A/E143A/Y409V); experiment: Polymerase end-point (PEP) assay, Therminator II; format: biochemical, Thermococcus species 9°N-7; conditions: Therminator II: 75° C.; incorporation concentration at 50%
T6 construct: purchased
T6 sequence (Q56366 whole entry D141A/E143A/Y409V/A485L): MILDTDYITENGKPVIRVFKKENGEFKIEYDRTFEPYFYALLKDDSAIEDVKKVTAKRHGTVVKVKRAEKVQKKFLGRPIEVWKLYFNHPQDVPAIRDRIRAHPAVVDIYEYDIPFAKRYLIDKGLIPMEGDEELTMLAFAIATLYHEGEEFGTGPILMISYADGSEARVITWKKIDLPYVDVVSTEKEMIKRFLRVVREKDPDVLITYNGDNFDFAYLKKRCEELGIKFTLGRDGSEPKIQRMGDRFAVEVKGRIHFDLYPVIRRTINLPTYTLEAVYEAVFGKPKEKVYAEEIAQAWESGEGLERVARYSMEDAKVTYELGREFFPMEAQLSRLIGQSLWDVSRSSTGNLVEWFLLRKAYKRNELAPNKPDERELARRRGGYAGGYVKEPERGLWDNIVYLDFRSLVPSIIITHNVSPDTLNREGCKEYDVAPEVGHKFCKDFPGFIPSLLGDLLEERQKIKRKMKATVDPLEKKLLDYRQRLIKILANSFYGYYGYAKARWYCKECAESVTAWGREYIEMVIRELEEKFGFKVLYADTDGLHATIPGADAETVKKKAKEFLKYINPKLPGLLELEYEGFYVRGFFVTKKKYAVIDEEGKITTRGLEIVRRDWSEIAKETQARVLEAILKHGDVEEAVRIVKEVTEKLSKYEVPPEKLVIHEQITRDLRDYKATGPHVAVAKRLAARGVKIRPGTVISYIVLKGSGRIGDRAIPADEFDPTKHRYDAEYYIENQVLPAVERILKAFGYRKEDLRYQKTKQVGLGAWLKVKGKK
Description: as §1, §5

[7] = target: T7, Vent (3′-exo-) DNA polymerase (Thermococcus litoralis, UniProt P30317, D141A/DEL1082-1471/DEL495-1032/E143A); experiment: Polymerase end-point (PEP) assay, Vent (3′-exo-); format: biochemical
T7 construct: purchased
T7 sequence (P30317 other isoform, or with tags, fused parts or gaps D141A/E143A/DEL495-1032/DEL1082-1471): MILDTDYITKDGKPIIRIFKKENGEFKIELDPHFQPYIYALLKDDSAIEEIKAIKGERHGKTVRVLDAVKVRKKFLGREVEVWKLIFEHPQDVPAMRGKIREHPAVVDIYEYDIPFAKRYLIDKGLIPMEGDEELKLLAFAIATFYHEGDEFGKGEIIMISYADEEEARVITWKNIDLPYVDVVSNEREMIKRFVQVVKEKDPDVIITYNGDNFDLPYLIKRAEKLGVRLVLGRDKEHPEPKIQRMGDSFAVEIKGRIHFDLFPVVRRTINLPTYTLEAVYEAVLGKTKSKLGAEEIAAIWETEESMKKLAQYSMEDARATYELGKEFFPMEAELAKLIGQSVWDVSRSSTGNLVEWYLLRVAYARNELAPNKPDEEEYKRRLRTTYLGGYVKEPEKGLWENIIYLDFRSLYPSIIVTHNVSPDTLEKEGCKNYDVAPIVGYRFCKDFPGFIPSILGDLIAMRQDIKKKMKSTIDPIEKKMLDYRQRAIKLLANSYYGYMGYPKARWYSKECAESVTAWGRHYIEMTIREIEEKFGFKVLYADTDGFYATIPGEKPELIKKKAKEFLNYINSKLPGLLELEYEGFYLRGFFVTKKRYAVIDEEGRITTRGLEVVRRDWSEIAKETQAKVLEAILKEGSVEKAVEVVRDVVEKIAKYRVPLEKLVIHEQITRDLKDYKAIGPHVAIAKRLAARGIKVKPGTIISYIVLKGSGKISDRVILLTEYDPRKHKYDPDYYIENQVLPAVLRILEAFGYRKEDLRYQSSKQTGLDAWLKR
Description: as §1, §5

[8] = target: T8, DeepVent (3′-exo-) DNA polymerase (Pyrococcus sp., UniProt Q51334, D141A/DEL493-1029/E143A); experiment: Polymerase end-point (PEP) assay, DeepVent (3′-exo-); format: biochemical, Pyrococcus species GB-D
T8 construct: purchased
T8 sequence (Q51334 other isoform, or with tags, fused parts or gaps D141A/E143A/DEL493-1029): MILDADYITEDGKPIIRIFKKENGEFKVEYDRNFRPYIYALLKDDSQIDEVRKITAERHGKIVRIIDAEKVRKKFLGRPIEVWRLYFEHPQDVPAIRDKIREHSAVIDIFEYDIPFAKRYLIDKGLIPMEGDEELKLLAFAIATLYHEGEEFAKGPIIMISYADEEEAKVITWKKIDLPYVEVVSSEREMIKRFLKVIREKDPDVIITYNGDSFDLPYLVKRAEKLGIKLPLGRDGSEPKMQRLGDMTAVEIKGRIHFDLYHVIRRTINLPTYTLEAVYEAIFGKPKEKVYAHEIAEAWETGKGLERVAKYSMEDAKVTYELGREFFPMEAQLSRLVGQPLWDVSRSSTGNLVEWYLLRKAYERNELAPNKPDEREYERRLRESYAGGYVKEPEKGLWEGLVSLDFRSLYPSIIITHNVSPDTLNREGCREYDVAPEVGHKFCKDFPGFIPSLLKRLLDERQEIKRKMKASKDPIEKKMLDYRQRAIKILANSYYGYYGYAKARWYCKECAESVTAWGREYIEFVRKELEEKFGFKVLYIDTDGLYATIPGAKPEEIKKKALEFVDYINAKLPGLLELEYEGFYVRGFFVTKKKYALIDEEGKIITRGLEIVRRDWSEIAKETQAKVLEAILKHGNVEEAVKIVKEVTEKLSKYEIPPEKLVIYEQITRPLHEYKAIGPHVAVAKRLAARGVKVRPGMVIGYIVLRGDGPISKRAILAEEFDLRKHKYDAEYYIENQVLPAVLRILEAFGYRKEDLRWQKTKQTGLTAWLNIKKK
Description: as §1, §5

[9] = Table 2, incorporation concentration at 50%, read-out: IC50 values, Bst
[10] = Table 2, incorporation concentration at 50%, read-out: IC50 values, Therminator
[11] = Bst: 65° C., IC50 = incorporation concentration at 50%, Table 1, read-out: IC50 values
[12] = Therminator: 75° C., incorporation concentration at 50%, Table 1, read-out: IC50 values
[13] = Vent (3′-exo-): 72° C., incorporation concentration at 50%, read-out: IC50 values
[14] = DeepVent (3′-exo-): 72° C., incorporation concentration at 50%, read-out: IC50 values

| Compound | IC50 [1, 9] [nM] | IC50 [2, 10] [nM] | IC50 [3] [nM] | IC50 [4] [nM] | IC50 [5] [nM] | IC50 [2, 12] [nM] | IC50 [6] [nM] | also measured |
| --- | --- | --- | --- | --- | --- | --- | --- | --- |
| O=c1[nH]c(=O)n([C@H]2C[C@H](O)[C@@H](COP(=O)(O)OP(=O)(O)OP(=O)(O)O)O2)cc1COCc1ccccc1[N+](=O)[O-] [VL3p03085, 5-(2-Nitrobenzyloxymethyl)-2′-deoxyuridine-5′-triphosphate] | 138 ± 38 | 1.1 ± 0.1 | – | – | – | – | – | – |
| O=[N+]([O-])c1ccccc1CNc1ncnc2c1ncn2[C@H]1C[C@H](O)[C@@H](COP(=O)(O)OP(=O)(O)OP(=O)(O)O)O1 [WW1p129, N^6-(2-Nitrobenzyl)-2′-deoxyadenosine-5′-triphosphate] | 39 ± 9 | 2.5 ± 0.4 | 4.3 ± 0.2 | 2100 ± 200 | 890 ± 60 | 3.1 ± 0.4 | 7.8 ± 0.7 | IC50 [1, 11]: 21 ± 3 nM; IC50 [7, 13]: 2.1 ± 0.2 nM; IC50 [8, 14]: 11 ± 0.6 nM |
| 6-JOE Labeled 5-[4-(3-Amino-1-propynyl)-2-nitrobenzyloxymethyl]-2′-deoxyuridine-5′-triphosphate [WW2p075] | – | 3.8 ± 1.1 | – | – | – | – | – | – |
| Nc1nc(OCc2ccc(C#CCNC(=O)c3ccc(C(=O)[O-])c(C4=c5cc6c7c(c5Oc5c4cc4c8c5CCCN8CCC4)CCC[N+]=7CCC6)c3)cc2[N+](=O)[O-])c2ncn([C@H]3C[C@H](O)[C@@H](COP(=O)(O)OP(=O)(O)OP(=O)(O)O)O3)c2n1 [WW2p121, 6-ROX Labeled O^6-[4-(3-Amino-1-propynyl)-2-nitrobenzyl]-2′-deoxyguanosine-5′-triphosphate] | – | – | – | – | – | – | – | IC50 [2]: 6.3 ± 0.4 nM |
| Nc1nc(OCc2ccccc2[N+](=O)[O-])c2ncn([C@H]3C[C@H](O)[C@@H](COP(=O)(O)OP(=O)(O)OP(=O)(O)O)O3)c2n1 [WW2p077, O^6-(2-Nitrobenzyl)-2′-deoxyguanosine-5′-triphosphate] | 3800 ± 200 | 6.9 ± 0.5 | – | – | – | – | – | – |
| CN(C)c1ccc2c(-c3cc(C(=O)NCC#Cc4ccc(CNc5ccn([C@H]6C[C@H](O)[C@@H](COP(=O)(O)OP(=O)(O)OP(=O)(O)O)O6)c(=O)n5)c([N+](=O)[O-])c4)ccc3C(=O)[O-])c3ccc(=[N+](C)C)cc-3oc2c1 [WW2p080, 6-TAMRA Labeled N^4-[4-(3-Amino-1-propynyl)-2-nitrobenzyl]-2′-deoxycytidine-5′-triphosphate] | – | 3 ± 0.6 | – | – | – | – | – | – |
| O=c1nc(NCc2ccccc2[N+](=O)[O-])ccn1[C@H]1C[C@H](O)[C@@H](COP(=O)(O)OP(=O)(O)OP(=O)(O)O)O1 [WW2p044, N^4-(2-Nitrobenzyl)-2′-deoxycytidine-5′-triphosphate] | 57 ± 11 | – | – | – | – | – | – | IC50 [2]: 1.8 ± 0.2 nM |
| Nc1ncnc2c1ncn2[C@H]1C[C@H](O)[C@@H](COP(=O)(O)OP(=O)(O)OP(=O)(O)O)O1 [dATP, 2′-deoxyadenosine triphosphate] | – | – | 1.6 ± 0.1 | 5.5 ± 0.5 | 5.3 ± 0.1 | 2.3 ± 0.3 | 4.4 ± 0.6 | IC50 [7]: 1.6 ± 0.2 nM; IC50 [8]: 2.8 ± 0.2 nM |
| Nc1ncnc2c1ncn2[C@H]1CC[C@@H](COP(=O)(O)OP(=O)(O)OP(=O)(O)O)O1 [ddATP] | – | – | 29 ± 5 | 12600 ± 900 | 3.3 ± 0.1 | 9.7 ± 1.1 | 230 ± 30 | IC50 [1, 11]: 370 ± 30 nM; IC50 [7, 13]: 550 ± 40 nM; IC50 [8, 14]: 3400 ± 400 nM |
